# Reference: patent US20240239848A1, “HOLOTHURIAN-DERIVED ACTIVE PEPTIDE WITH IMMUNE ACTIVITY, PREPARATION METHOD AND APPLICATION THEREOF” (BOHAI UNIVERSITY, priority 2023, published 2024)
# No end group written: not given here.
# Tests used:
# Type in all cases: cell-based, mouse
# macrophage RAW264.7 = experiment: Survival rate of macrophages RAW264.7 (CCK-8 method); details: RAW264.7, synthetic peptide 50-200 μg/mL, 24 h
# Procedure: Blank group: Macrophages RAW264.7 are inoculated into 96-well plates and cultured for 24 h.
# Sample group: synthetic peptides with different concentrations (50-200 μg/mL) are used for treating for 24 h.
# The CCK-8 method is used to measure the absorbance values of different components, and the survival rate of macrophage RAW264.7 is calculated according to the absorbance values.
# [1] = test system: macrophage RAW264.7 induced by LPS; experiment: NO release from macrophage RAW264.7 induced by LPS (NO kit)
# Procedure: (2) Influence of Synthetic Peptide on NO Release from Macrophage RAW264.7 Induced by LPS
# (§1) Blank group: macrophage RAW264.7 cells are inoculated into a 96-well plate and cultured for 24 h.
# Induced injury group: after cell culture, cells in blank group are treated with 100 ng/ml LPS for 24 h, and then treated with synthetic peptides with different concentrations (50-200 μg/mL) for 24 h.
# (§2) Negative control group: after cell culture in blank group, cells are treated with 100 ng/mL LPS for 24 h.
# The NO release amount of different components is measured by NO kit. After 24 hours of treatment with synthetic peptides with different concentrations, the NO release amount of macrophage RAW264.7 induced by LPS is shown in FIG. 3.
# IL-1β = IL-1β secretion of macrophage RAW264.7 induced by LPS (ELISA); details: LPS-induced RAW264.7, peptide 200 μg/mL
# Procedure: (§3) (2) Influence of IIENAVQ on the secretion of cytokines (IL-1β, TNF-α) of macrophage RAW264.7 induced by LPS
# as §1
# (§4) Induced injury group: after the cells in the blank group are cultured, the cells are treated with 100 ng/mL LPS for 24 h, and then treated with different concentrations (50-200 μg/mL) of IIENAVQ for 24 h.
# as §2
# (§5) The cytokines of different components are determined by ELISA kit.
# (§6) The final detection results of (1) and (2) are illustrated in FIG. 4A and FIG. 4B.
# TNF-α = TNF-α secretion of macrophage RAW264.7 induced by LPS (ELISA); details: LPS-induced RAW264.7, peptide 200 μg/mL
# Procedure: as §3, §1, §4, §2, §5, §6
substance,measurement,setting,value
IIENAVQ [IIENAVQ],cell survival rate,macrophage RAW264.7,116.88%
same,"release of NO from macrophages RAW264.7 induced by LPS, compared with LPS-negative control group","[1]; 100 ng/mL LPS 24 h, then peptide 50-200 μg/mL 24 h",significantly reduces
same,final concentration of NO,"[1]; LPS-induced RAW264.7, peptide 200 μg/mL",27.99 ± 0.33 µmol/L
same,inhibition rate of IL-1β secretion,IL-1β,51.54%
same,secretion of cytokine IL-1β,IL-1β,28.73 ± 1.12 pg/mL
same,inhibition rate of TNF-α secretion,TNF-α,60.24%
same,secretion of cytokine TNF-α,TNF-α,70.78 ± 5.55 pg/mL
